According to ChEMBL document CHEMBL3045337, “A Comparative Study: Evaluation of Antioxidant Activity of Melatonin and Some Indole Derivatives” (Med Chem Res, 2005):

Columns and labels:
[1] = Antioxidant activity assessed as superoxide radical scavenging activity at 10 '-3 M measured for 3 min by spectrophotometry relative to control; format: functional
[2] = Antioxidant activity assessed as superoxide radical scavenging activity at 10 '-4 M measured for 3 min by spectrophotometry relative to control; format: functional
[3] = system: Liver; test: Antioxidant activity in Rattus norvegicus (rat) liver homogenate assessed as inhibition of lipid peroxidation measuring TBARS production at 10 '-3 M after 1 hr by spectrophotometry relative to control; format: functional, tissue-based
[4] = system: Liver; test: Antioxidant activity in Rattus norvegicus (rat) liver homogenate assessed as inhibition of lipid peroxidation measuring TBARS production at 10 '-4 M after 1 hr by spectrophotometry relative to control; format: functional, tissue-based

SMILES | Activity [1] [%] | Superoxide level, % of control [2] [%] | inhibition [3] [%] | TBARS production (% of control) [4] [%]
Cc1c(C)c2c(c(C)c1O)CC[C@@](C)(CCC[C@H](C)CCC[C@H](C)CCCC(C)C)O2 | 14 | 83 | 27 | 46
CN(C)CCCNC(=O)CCc1c[nH]c2ccccc12 | 98 | 98 | 27 | 102
CCCCCNC(=O)CCc1c[nH]c2ccccc12 | 87 | 103 | 25 | 94
COc1ccc2[nH]cc(CCNC(C)=O)c2c1 | 84 | 90 | 28 | 93
CCN(CC)CCCNC(=O)CCc1c[nH]c2ccccc12 | 90 | 108 | 31 | 96
CCN(CC)CCNC(=O)CCc1c[nH]c2ccccc12 | 91 | 102 | 26 | 51
CN(C)CCNC(=O)CCc1c[nH]c2ccccc12 | 83 | 94 | 28 | 101
CCCNC(=O)CCc1c[nH]c2ccccc12 | 94 | 100 | 28 | 102
COC(=O)CCc1c[nH]c2ccccc12 | 70 | 54 | 56 | 114
CCCCNC(=O)CCc1c[nH]c2ccccc12 | 85 | 104 | 28 | 100
